Tested on: Keratinocytes of newly born mice
Assay: antiproliferative potency: 3H thymidine incorporation in DNA of keratinocytes
Type: cell-based, mouse (neonatal NMRI mice)
Conditions: Keratinocyte; neonatal mouse keratinocytes, 24 hours with test substance in serum-free medium at 32.5° C., then 4 hours 3H methyl thymidine; read-out: IC50, inhibition of 3H thymidine incorporation in DNA
Description: Keratinocytes of newly born mice, with a slight change of the method of Yuspa, S. and Harris, C.
Neonatal NMRI mice of both sexes are killed by decapitation, the skin is removed, washed in an antibiotic-antimycotic solution and incubated with the dermal side downward in dispase II solution ([…] in tissue culture medium M199+25 mmol/1 of HEPES+15% fetal calf serum (FCS)+50 U/ml of penicillin/streptomycin (P/S) (preparation medium, PM) at 4° C. overnight. The epidermis is removed and an individual cell suspension is produced by trypsinization. After centrifuging, the cell sediment is resuspended, after trypan blue dyeing, the number of living small round cells is determined and the cells are sown in a density of 4×10^5 cells/cm^2 in Primaria 24-hole plates in tissue culture medium (M199+15% FCS+50 U/ml of P/S). […] Then 0.4 microCi/50 microliters of ^3 H methyl thymidine (40 Ci/mmol) is added. After 4 hours the medium is suctioned off and the reaction is ended by addition of 500 microliters of ice-cold 10% trichloroacetic acid (TCA). The cells are washed with TCA and PBS, lysed by incubation in a proteinase K solution (10 mmol/l of tris-HCl, 10 mmol/l of EDTA, 10 mmol/l of NaCl, 0.2% of Triton-X 100, pH 8.0, 50 micrograms/ml of […]) and the lysate is clarified by centrifuging. In the supernatant the radioactivity is determined scintillation photometrically and, after specific staining of the DNA with diamidinophenylindole (DAPI), the DNA concentration is fluorescence photometrically determined.

| Structure (SMILES) | IC50 [nM] |
| --- | --- |
| C=C1/C(=C\C=C2/CCC[C@]3(C)[C@@H]([C@H](C)/C=C/[C@@H](O)CC(C)C)CC[C@@H]23)C[C@@H](O)C[C@@H]1O [Compound B, (5Z,7E,22E)-(1S,3R,24S)-9,10-seco-24a-homo-5,7,10(19),22-cholestatetraene-1,3,24-triol] | 9.5 |
| C=C1/C(=C\C=C2/CCC[C@]3(C)[C@@H]([C@H](C)/C=C/[C@H](O)CC(C)C)CC[C@@H]23)C[C@@H](O)C[C@@H]1O [Compound A, (5Z,7E,22E)-(1S,3R,24R)-9,10-seco-24a-homo-5,7,10(19),22-cholestatetraene-1,3,24-triol] | 6 |
| C=C1/C(=C\C=C2/CCC[C@]3(C)[C@@H]([C@H](C)CCCC(C)(C)O)CC[C@@H]23)C[C@@H](O)C[C@@H]1O [Calcitriol, 1alpha,25-dihydroxy-cholecalciferol, reference compound] | 2.7 |
